Laboratory results: the supplement of paper PMC10307832

What was measured:
Experiment in all cases: relative viability (nuclei count vs DMSO), 5 days (fraction); higher = more cells survive
[1] = compound: C1=CC=C2C(=C1)N=C(S2)C(C#N)C3=NC(=NC=C3)NCCC4=CN=CC=C4 + O=C(c1cc(Cc2n[nH]c(=O)c3ccccc23)ccc1F)N1CCN(C(=O)C2CC2)CC1 [Olaparib] (partner 8 µM)
How it was run: (§1)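 One day after seeding in 1536-well plates, lung cancer cell lines were dosed by pin tool. Dosing was either single-drug or a fixed anchor-drug dose plus five library-drug doses (not always all listed) in √10 steps. After 5 days, nuclei were stained in one fix-and-stain step and counted on 4× images, and relative viability is the nuclei count of treated wells over that of vehicle wells, given as the median of duplicate plates.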

[2] = compound: COc1cc2/c(=N/c3ccc(Br)cc3F)nc[nH]c2cc1OCC1CCN(C)CC1 [Vandetanib] + COc1cccc2cc(-c3nc([C@H]4CC[C@H](C(=O)O)CC4)n4ncnc(N)c34)[nH]c12 [OSI-027] (partner 0.5 µM)
How it was run: as §1

[3] = compound: C1=CC=C2C(=C1)N=C(S2)C(C#N)C3=NC(=NC=C3)NCCC4=CN=CC=C4 + Nc1ncn([C@H]2C[C@H](O)[C@@H](CO)O2)c(=O)n1 [Decitabine] (partner 2 µM)
How it was run: as §1

[4] = compound: COc1cc(N2CCC(N3CCN(C)CC3)CC2)ccc1Nc1ncc(Cl)c(Nc2ccccc2S(=O)(=O)C(C)C)n1 [NVP-TAE684] + Cc1nc(NC(=O)N2CCC[C@H]2C(N)=O)sc1-c1ccnc(C(C)(C)C(F)(F)F)c1 [Alpelisib] (partner 2 µM)
How it was run: as §1

Cell Line	relative viability ([1]; first compound 0.005 µM)	relative viability ([1]; first compound 0.01581 µM)	relative viability ([1]; first compound 0.05 µM)	relative viability ([1]; first compound 0.1581 µM)	relative viability ([1]; first compound 0.5 µM)	relative viability ([2]; first compound 0.02 µM)	relative viability ([2]; first compound 0.06325 µM)	relative viability ([2]; first compound 0.2 µM)	relative viability ([2]; first compound 2 µM)	relative viability ([3]; first compound 0.005 µM)	relative viability ([3]; first compound 0.01581 µM)	relative viability ([3]; first compound 0.05 µM)	relative viability ([3]; first compound 0.1581 µM)	relative viability ([3]; first compound 0.5 µM)	relative viability ([4]; first compound 0.2 µM)	relative viability ([4]; first compound 0.6325 µM)	relative viability ([4]; first compound 2 µM)	relative viability ([2]; first compound 0.6325 µM)
201T	0.829	0.837	0.802	0.905	0.706	0.69	0.664	0.719	0.672	0.772	0.91	0.868	0.833	0.911	0.976	1.05	0.839	
A549	0.488	0.236	0.321	0.409	0.232					0.239	0.33	0.239	0.312	0.323	0.823	0.58	0.253	
A-427	0.699	0.694	0.698	0.856	0.718	0.542	0.486	0.53	0.432	0.599	0.495	0.568	0.555	0.574	1.12		0.899	0.481
ABC-1	0.731		0.803	0.825	0.936	0.43	0.464	0.488	0.254	0.915		0.906	1.15	1.13	1.07		0.537	0.479
BEN	0.976	1.21	1.03	1.05	0.853	0.247	0.302	0.292	0.282	0.654	0.666	0.664	0.863	0.811		0.955	1.02	0.285
CAL-12T	0.712	0.658	0.739	0.866	0.648	0.701	0.655	0.541	0.291						1.24	1.38	0.535	0.626
COR-L23	0.318	0.327	0.355	0.373	0.306	0.731	0.671	0.736	0.789	0.439	0.45	0.415	0.472	0.424	0.762	0.517	0.237	0.684
COR-L 105	0.544	0.602	0.602	0.578	0.551	0.629	0.641	0.507	0.329	0.597	0.628	0.638	0.637	0.642	0.852	0.926	0.538	0.411
Calu-6	0.602	0.619	0.52	0.644	0.505										0.854	0.912	0.517	
ChaGo-K-1	0.372	0.425	0.408	0.421	0.402	0.532	0.54	0.515	0.591	0.488	0.53	0.518	0.542	0.511				0.602
EBC-1	0.784	0.757	0.656	0.629	0.574										0.772	0.824	0.559	
EKVX	1	0.865	0.797	0.689	0.673	0.741	0.693	0.723	0.563	0.152	0.286	0.309	0.329	0.23	0.936	0.781	0.63	0.67
EMC-BAC-2	0.512	0.481	0.469	0.476	0.427	0.382	0.358	0.318	0.38	0.872	0.984	0.916	1.04	0.91	0.704	0.759	0.436	0.381
EPLC-272H		0.803	0.733	0.825	0.517	0.319		0.305	0.265	0.501	0.337	0.36	0.385	0.309	0.799		0.9	0.286
H3255	0.55	0.594	0.603	0.575	0.534	0.655	0.459	0.455	0.227	0.574	0.561	0.561	0.639	0.726	0.716	0.608	0.491	0.417
HARA	0.773	0.659	0.942	0.822	0.954	0.542	0.299	0.466	0.483	0.7	0.574	0.634	0.538	0.584	0.884	0.719	0.346	0.525
HCC-15	0.663	0.727	0.662	0.837	0.686	0.75	0.638	0.668	0.537	0.568	0.608	0.644	0.66	0.564	0.865	0.933	0.678	0.682
HCC-44	0.994	1	0.987	1.01	0.968	0.434	0.49	0.574	0.427	0.956	0.933	0.971	0.978	1.01	0.835	0.784	0.313	0.439
HCC-78	0.852	0.935	0.816	0.936	0.756	0.374	0.39	0.42	0.361	0.776	0.779	0.634	0.825	0.747	0.319	0.198	0.282	0.364
HCC-366	0.189	0.449	0.349	0.372	0.354	0.807	0.876	0.978	0.948	0.328	0.385	0.363	0.344	0.321	0.758	0.342	0.0918	0.824
